Our source for the IC50 values is US20250177547A1, “PSMA-STEAP1 DUAL VARIABLE DOMAIN IMMUNOGLOBLIN (DVD-Ig) MOLECULES AND DRUG CONJUGATES” (AbbVie Inc., priority 2023, published 2025).

One test relates to LNCaP.FGC cells. Put plainly: In vitro cytotoxicity of MMAE conjugates (CellTiter-Glo), LNCaP.FGC. As to conditions: read-out: LNCaP.FGC IC50, 7 days.
The subject of another test is HEK293-PSMA cells. The test can be described thus: In vitro cytotoxicity of MMAE conjugates (CellTiter-Glo), HEK293-PSMA. The note with it: read-out: HEK293-PSMA IC50, 7 days, CellTiter-Glo.

pIC50: −log10 of the molar value. Where “and” joins values, the source holds several entries; their conditions need not be identical. Equal entries are not always repeated.

With PSMA, the negative-log IC50 (pIC50) is 9.82 and 10.00 in the test with LNCaP.FGC cells; 10.15 and 10.22 with HEK293-PSMA cells.

As usually defined, the pIC50 is the IC50 on a negative log10 scale, so that one unit is a factor of ten.
